Measured values taken from US7399771B2, “Piperidine derivatives as CCR5 inhibitors” (Novartis AG, priority 2002, dated 2008).
One block for each molecule: values may come before it.

Assays:
Human CCR5 [1] = molecular target: T1, Human CCR5 (Homo sapiens, UniProt P51681); assay: CCR5 membrane binding assay ([I-125]MIP-1α radioligand, membranes of CHO K1 transfectants); conditions: membranes of CHO K1 cells transfected with human CCR5; ligand 125-I MIP-1α
T1 construct: expressed in transfected cells
Protocol: a) CCR5 Membrane Binding Assay
Human CCR5 is used to generate stable transfectants in CHO K1 cells. Membranes prepared from these CCR5 transfectants are used in a radioligand binding assay using 125-I MIP-1α as a ligand and the compounds of formula I are tested for inhibitory activity.

Human CCR5 [2] = molecular target: T1, Human CCR5; assay: CCR5 functional assay - Ca2+ mobilization in CHO K1 CCR5 transfectants; assay type: cell-based
Protocol: b) CCR5 Functional Assay—Ca^2+ Mobilization Human CCR5 is used to generate stable transfectants in CHO K1 cells. These CCR5 transfectants are used for assessing Ca^2+ mobilization in response to stimulation by the CCR5 ligands MIP-1α, MIP-1β, HCC-1(9-74) or RANTES. For the assay the cells are loaded with a Ca^2+-sensitive fluorochrome (Fluo3 or Fluo4). Ligand concentrations between 0.01-100 nM are used to induce Ca^2+ mobilization which is monitored in a fluorometer with appropriate settings. To assess the activity of the compounds to be tested, a baseline fluorescence reading is taken after which the compounds at the desired concentration are added to the cells and fluorescence is further recorded for a certain time to assess whether compounds show agonistic effects. Next the agonist is added to the mixture and fluorescence monitored. The inhibition of Ca^2+ flux in the presence of the compounds to be tested is calculated from the inhibition of maximal fluorescence induced by the agonist. IC50 values are calculated from dose-response curves obtained with the compounds.

T1 sequence (P51681 whole entry): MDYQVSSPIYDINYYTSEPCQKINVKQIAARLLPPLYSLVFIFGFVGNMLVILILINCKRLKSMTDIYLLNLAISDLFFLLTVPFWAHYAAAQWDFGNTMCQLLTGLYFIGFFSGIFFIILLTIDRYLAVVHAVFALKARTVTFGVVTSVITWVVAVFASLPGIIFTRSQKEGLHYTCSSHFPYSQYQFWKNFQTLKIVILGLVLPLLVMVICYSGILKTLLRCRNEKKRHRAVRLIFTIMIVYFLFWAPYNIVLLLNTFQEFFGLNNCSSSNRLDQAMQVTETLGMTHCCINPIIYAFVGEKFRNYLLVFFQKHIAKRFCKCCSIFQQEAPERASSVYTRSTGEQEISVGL

IC50 (Human CCR5 [1]): 0.5 nM
Compound: Cc1nc(CN(c2ccc(Cl)cc2)C2CCN(C3(C)CCN(C(=O)c4c(C)cccc4C)CC3)CC2)cs1 [Example 32]

Compound: Cc1cc[n+]([O-])c(C)c1C(=O)N1CCC(C)(N2CCC(N(c3ccccc3)c3ccccn3)CC2)CC1 [Example 12, (2,4-Dimethyl-1-oxy-pyridin-3-yl)-[4′-methyl-4-(phenyl-pyridin-2-yl-amino)-[1,4′]bipiperidinyl-1′-yl]methanone]
IC50 (Human CCR5 [2]): 29 nM

Compound: Cc1cc[n+]([O-])c(C)c1C(=O)N1CCC(C)(N2CCC(N(Cc3ccsc3)c3ccccc3)CC2)CC1 [Example 36, (2,4-Dimethyl-1-oxy-pyridin-3-yl)-[4′-methyl-4-(phenyl-thiophen-3-ylmethyl-amino)-[1,4′]bipiperidinyl-1′-yl]-methanone]
IC50 (Human CCR5 [2]; CHO K1 CCR5 transfectants, Fluo3 or Fluo4, agonist MIP-1α, MIP-1β, HCC-1(9-74) or RANTES, read-out: IC50, inhibition of Ca2+ flux): 8 nM
